Results taken from patent US20030064954A1, “Cationic amphiphilic 1,4-dihydropyridine derivatives useful for delivery of nucleotide containing compounds” (priority 2000, published 2003).
Several values for one entry are separate records, joined by “and”; a condition that tells them apart may be missing. Equal values may be shown once.

What was measured:
[1] = test system: plasmid DNA; assay: DNA condensation/complexation, EtBr displacement assay; type: binding
Experimental: The ability of the cationic amphiphiles to condense DNA was assessed with an EtBr displacement assay. Briefly, in 96 well plates plasmid DNA (0.6 μg per well) was reacted with 0.002% EtBr in 20 mM HEPES—150 mM NaCl buffer, pH 7.4 and fluorescence intensity was measured at 530 nm (excitation) and 590 nm (emission). Intercalation of EtBr molecules between the base pairs of the DNA double helix results in increased fluorescence signal. Immediately thereafter, the cationic liposomes were added to form complexes at different +/−charge ratios and the quenching of fluorescence intensity of EtBr was monitored. Condensation of DNA upon complexation with liposomes results in the displacement of EtBr from DNA and in decreased fluorescence signal. Fluorescence was measured using FL 500 microplate fluorescence reader (Bio-Tek Instruments Inc., Winooski, Vt., USA).
The values are expressed as percentage of the maximum fluorescence signal when EtBr bound to DNA in the absence of an amphiphile. Each data point is from at least triplicate experiment ±S.D.

[2] = test system: CVI-P cells; assay: Cytotoxicity of amphiphile/DNA complexes, percentage of survived cells
[3] = test system: D 407 cells; assay: as above; type: cell-based, human; set-up: concentration or dose not given beside the values
[4] = test system: D407 (human retinal pigment epithelial) cells; assay: In vitro transfection of plasmid DNA, β-galactosidase activity per well; type: cell-based; conditions: D 407
[5] = test system: CV-1P (African monkey green kidney fibroblasts cells); assay: as above; type: cell-based; conditions: CVI-P; for transfection, result in words: entry spans the charge ratios 8-0.5
Experimental: Transfer of plasmid DNA by various compounds was investigated by using CV-1P (African monkey green kidney fibroblasts cells) and D407 (human retinal pigment epithelial) cells.
The cells were cultured in Dulbecco's modified Eagle's medium (DMEM, Gibco), supplemented with 10% fetal bovine serum (FBS), penicillin/streptomycin (100 units/ml and 100 μg/ml respectively) and 2 mM L-glutamine for D 407 cell line. Cell cultures were maintained at 37° C. in a 7% CO2/air incubator. The cells were collected, counted and seeded in growth medium (100 μl) into 96-well culture plate, 20 000 cells per well. One day later the medium was replaced with fresh medium without serum (150 μl)
In the case of confluent CV1-P cells the medium (with of without serum) was changed on fourth day of cell growth before the transfection.
The complexes at different derivative/DNA charge ratios for transfection procedure were prepared just before use in 50 mM MES—50 mM HEPES—75 mM NaCl buffer, pH 7.2 in separate 96 well plates. One hour after changing the serum-free medium with 10% serum the complexes were added to the cells at […]. Dose of DNA per well was 0.6 μg. After 5 h the complexes were removed, the cells were washed with PBS, and the normal growth medium was added. After 45 h of incubation at 37° C. the cells were lysed with 2% Triton X 100, twice deep frozen and the β-galactosidase activity in each well was determined spectrofotometrically with ELx800 automated microplate reader (Bio-Tex Instruments Inc., Winooski, Vt. USA) by monitoring the hydrolysis of o-nitrophenylgalactopyranoside (oNPG) at 405 nm. Purified β-galactosidase from E.coli was used to construct a standard curve and to calculate […] activity in the transfected cells. […] Transfection efficiencies are given as percentage in comparison to transfection efficiency of Lipofectin^R.

[6] = amphiphile/DNA +/− charge ratio 0.5
[7] = amphiphile/DNA +/− charge ratio 1
[8] = amphiphile/DNA +/− charge ratio 2
[9] = amphiphile/DNA +/− charge ratio 8
[10] = amphiphile/DNA +/− charge ratio 4

CCCCCCCC/C=C\CCCCCCCC(=O)OCC(C[N+](C)(C)C)OC(=O)CCCCCCC/C=C\CCCCCCCC.[Cl-] (centres unmarked) [DOTAP, N-(1-(2,3-dioleoyloxy)propyl)-N,N,N-trimethylammoniummethyl-sulfate, reference compound]
complexation, percentage of the maximum fluorescence signal when EtBr bound to DNA in the absence of an amphiphile [1, 6]: 86,72%
complexation, percentage of the maximum fluorescence signal when EtBr bound to DNA in the absence of an amphiphile [1, 7]: 76,11%
complexation, percentage of the maximum fluorescence signal when EtBr bound to DNA in the absence of an amphiphile [1, 8]: 69,15%
complexation, percentage of the maximum fluorescence signal when EtBr bound to DNA in the absence of an amphiphile [1, 9]: 65,47%
cytotoxicity as a percentage of survived cells [2, 6]: 92,45%
cytotoxicity as a percentage of survived cells [2, 7]: 92,09%
cytotoxicity as a percentage of survived cells [2, 8]: 91,87%
cytotoxicity as a percentage of survived cells [2, 10]: 97,89%
cytotoxicity as a percentage of survived cells [2, 9]: 102,3%
cytotoxicity as a percentage of survived cells [3, 6]: 85,08%
cytotoxicity as a percentage of survived cells [3, 7]: 87,48%
cytotoxicity as a percentage of survived cells [3, 8]: 80,32%
cytotoxicity as a percentage of survived cells [3, 10]: 81,34%
cytotoxicity as a percentage of survived cells [3, 9]: 76,11%
transfection efficiency [4, 6]: 0,7 β-galactosidase units per well
transfection efficiency [4, 7]: 4,8 β-galactosidase units per well
transfection efficiency [4, 8]: 25,05 β-galactosidase units per well
transfection efficiency [4, 10]: 19,6 β-galactosidase units per well
transfection efficiency [4, 9]: 4,92 β-galactosidase units per well
transfection efficiency [5, 6]: 0,61 β-galactosidase units per well
transfection efficiency [5, 7]: 0,9 β-galactosidase units per well
transfection efficiency [5, 8]: 15,58 β-galactosidase units per well
transfection efficiency [5, 10]: 10,5 β-galactosidase units per well
transfection efficiency [5, 9]: 3,19 β-galactosidase units per well

CCCCCCCCCCCCCCCCOCCCOC(=O)C1=C(C)NC(C)=C(C(=O)OCCCOCCCCCCCCCCCCCCCC)C1c1ccc[n+](C)c1.[I-] [II]
complexation, percentage of the maximum fluorescence signal when EtBr bound to DNA in the absence of an amphiphile [1, 6]: 92,2%
complexation, percentage of the maximum fluorescence signal when EtBr bound to DNA in the absence of an amphiphile [1, 7]: 85,6%
complexation, percentage of the maximum fluorescence signal when EtBr bound to DNA in the absence of an amphiphile [1, 8]: 77,2%
complexation, percentage of the maximum fluorescence signal when EtBr bound to DNA in the absence of an amphiphile [1, 10]: 74,8%
complexation, percentage of the maximum fluorescence signal when EtBr bound to DNA in the absence of an amphiphile [1, 9]: 72,4%
cytotoxicity as a percentage of survived cells [2, 6]: 111,42%
cytotoxicity as a percentage of survived cells [2, 7]: 101,24%
cytotoxicity as a percentage of survived cells [2, 8]: 102,9%
cytotoxicity as a percentage of survived cells [2, 10]: 79,08%
cytotoxicity as a percentage of survived cells [2, 9]: 99,23%
transfection, result in words [5]: No signal

CCCCCCCCCOC(=O)C1=C(C)NC(C)=C(C(=O)OCCCCCCCCC)C1c1ccc[n+](C)c1.I.[I-] [IV, 1′,4′-Dihydro-1,2′,6′-trimethyl-3′,5′-bis(nonyloxycarbonyl)-3,4′-bipyridinium iodide]
transfection, result in words [5]: No signal

CCCCCCCCCCCCCCCC(=O)OCC(COC(=O)C1=C(C)NC(C)=C(C(=O)OCC(COC(=O)CCCCCCCCCCCCCCC)OC(=O)CCCCCCCCCCCCCCC)C1c1ccc[n+](C)c1)OC(=O)CCCCCCCCCCCCCCC.I.[I-] (centres unmarked) [IX, 3′,5′-Bis [(2,3-dipalmitoyloxypropoxy)carbonyl]-1′,4′-dihydro-1,2′,6′-trimethyl-3,4′-bipyridinium iodide]
complexation, percentage of the maximum fluorescence signal when EtBr bound to DNA in the absence of an amphiphile [1, 6]: 101,6% and 97,8%
complexation, percentage of the maximum fluorescence signal when EtBr bound to DNA in the absence of an amphiphile [1, 7]: 101,6% and 97,5%
complexation, percentage of the maximum fluorescence signal when EtBr bound to DNA in the absence of an amphiphile [1, 8]: 103,3% and 97,5%
complexation, percentage of the maximum fluorescence signal when EtBr bound to DNA in the absence of an amphiphile [1, 10]: 97,8% and 98,4%
complexation, percentage of the maximum fluorescence signal when EtBr bound to DNA in the absence of an amphiphile [1, 9]: 98,5% and 106,1%
cytotoxicity as a percentage of survived cells [2, 6]: 83,11% and 90,48%
cytotoxicity as a percentage of survived cells [2, 7]: 84,63% and 107,13%
cytotoxicity as a percentage of survived cells [2, 8]: 97,34% and 120,34%
cytotoxicity as a percentage of survived cells [2, 10]: 106,62% and 117,42%
cytotoxicity as a percentage of survived cells [2, 9]: 100,65% and 124,54%
transfection, result in words [5]: No signal

Br.CCCCCCCCCCCCCCOC(=O)C1=C(C)NC(C)=C(C(=O)OCCCCCCCCCCCCCC)C1c1ccc[n+](CCCC)c1.[Br-] [XXI, 1-Butyl-1′,4′-dihydro-2′,6′-dimethyl-3′,5′-bis(tetradecyloxycarbonyl)-3,4′-bipyridinium bromide]
transfection, result in words [5]: No signal

CCCCCCCCCCOC(=O)C1=C(C[n+]2ccccc2)NC(C[n+]2ccccc2)=C(C(=O)OCCCCCCCCCC)C1c1ccccc1.[Br-].[Br-] [XXII, 1,1′-{[3,5-Bis(decyloxycarbonyl)-1,4-dihydro-4-phenylpyridine-2,6-diyl]dimethylene}bispyridinium dibromide]
complexation, percentage of the maximum fluorescence signal when EtBr bound to DNA in the absence of an amphiphile [1, 6]: 77,8%
complexation, percentage of the maximum fluorescence signal when EtBr bound to DNA in the absence of an amphiphile [1, 7]: 58,8%
complexation, percentage of the maximum fluorescence signal when EtBr bound to DNA in the absence of an amphiphile [1, 8]: 48,1%
complexation, percentage of the maximum fluorescence signal when EtBr bound to DNA in the absence of an amphiphile [1, 10]: 45,1%
complexation, percentage of the maximum fluorescence signal when EtBr bound to DNA in the absence of an amphiphile [1, 9]: 43,5%
cytotoxicity as a percentage of survived cells [2, 6]: 95,71%
cytotoxicity as a percentage of survived cells [2, 7]: 87,2%
cytotoxicity as a percentage of survived cells [2, 8]: 84,01%
cytotoxicity as a percentage of survived cells [2, 10]: 78,2%
cytotoxicity as a percentage of survived cells [2, 9]: 46,74%
transfection, result in words [5]: No signal

CCCCCCCCC=CCCCCCCCCOC(=O)C1=C(C[n+]2ccccc2)NC(C[n+]2ccccc2)=C(C(=O)OCCCCCCCCC=CCCCCCCCC)C1c1ccccc1.[Br-].[Br-] (centres unmarked) [XXVI, 1,1′-[(3,5-Dioctadec-9′-enyloxycarbonyl-4-phenyl-1,4-dihydropyridine-2,6-diyl)dimethylene]bispyridinium dibromide]
transfection, result in words [5]: No signal

CCCCCCCCCCOC(=O)C1=C(C[N+](C)(C)CCCCCCCC)NC(C[N+](C)(C)CCCCCCCC)=C(C(=O)OCCCCCCCCCC)C1c1ccccc1.[Br-].[Br-] [XXVII, N,N′-{[3,5-Bis(decyloxycarbonyl)-1,4-dihydro-4-phenyl-pyridine-2,6-diyl]dimethylene}-N,N,N′,N′-tetramethyl-N,N′-dioctyldiammonium dibromide]
DNA condensing capacity (mark in Table 2) [1]: 23a/XXVII*
cytotoxicity as a percentage of survived cells [2, 6]: 105,03%
cytotoxicity as a percentage of survived cells [2, 7]: 98,37%
cytotoxicity as a percentage of survived cells [2, 8]: 88,41%
cytotoxicity as a percentage of survived cells [2, 10]: 24,62%
cytotoxicity as a percentage of survived cells [2, 9]: 13,46%
transfection efficiency [5, 6]: 0,24 β-galactosidase units per well
transfection efficiency [5, 7]: 1,63 β-galactosidase units per well
transfection efficiency [5, 8]: 36,55 β-galactosidase units per well
transfection efficiency [5, 10]: 21,46 β-galactosidase units per well
transfection efficiency [5, 9]: 3,14 β-galactosidase units per well
